# In patent publication US20090258947A1 (priority 2006, published 2009):
# Like-named read-outs stand apart in the source and are kept apart here. Marks after values point to notes of the source that are not given here.
# How the values were obtained:
# [1] = test system: carrageenan induced paw edema in Wistar rats; conditions: for Change in volume (ml) at hour (h): mean ± S.E.M., n = 6
# Experimental: Male Wistar rats (180-250 g) were selected for the study comprising 6 animals in each group for the duration of study of 1 day. The vehicle used was (0.5% CMC in 0.1% Tween®80) and the route of administration was peroral (p.o.). […] One hour later 0.1 ml of 1% carrageenan was administered s.c. to the right hind paw of the rat. The degree of inflammation was measured by using digital plethosmometer (Cat. No. 7140, Ugo Basile, Italy) at 0 (initial), 0.5, 1, 2, 3 and 5 hours (h) post carrageenan injection and the values were recorded. For each hour, at least 2-3 values of the dipped paw were obtained and later averaged. The increase in the paw volume (ml) was calculated by subtracting the values obtained at the n^th from the 0 hour and percentage of activity was also calculated. The changes in paw edema (ml) values were expressed as mean±S.E.M. The treatment values were compared with the control values for a particular hour using One-Way Analysis of Variance followed by Dunnett's multiple comparison test. Values of p<0.05 were considered as statistically significant.
# [2] = test system: tail flick latency to radiant heat in mice; conditions: for % MPE at hour (h) / Tail flick latency(s) at hour (h): mean ± S.E.M., N = 6
# Experimental: (§1) Male Swiss mice (18-22 g) were selected for the study comprising 6 animals in each group. The dose volume was 0.1 ml/10 g body weight of mice and the route of administration was per oral (p.o.). Two tests were performed for the purpose. […] One hour later, a 1% acetic acid solution (10 ml/kg, i.p.) was used to produce writhing in mice. The numbers of writhes {constriction of abdomen, turning of trunk (twist), and extension of hind limbs} due to acetic acid were expressed as painful response. The numbers of writhes per animal were counted during a 20-minute session, beginning 3 minutes after the acetic acid injection. In second test i.e. Tail flick test, the mouse tail was placed on the radiant heat produced by the tail flick apparatus and the individual animal tail flick response was noted (a trail of three was carried out). Animals having a latency to tail withdrawal from the radiant heat source (3-5 s) were selected for the study. […] 1, 2, 4, 5 hours later, the tail flick latency were noted and the change in latency and % maximum protective effect (% MPE) was calculated. A cut off time of 10 seconds was used to prevent any injury to the tail. The changes in tail flick latency and the number of writhes are expressed as mean±S.E.M. The treatment values were compared with the control values for a particular hour using One-Way Analysis of Variance followed by Dunnett's or Bonferroni's multiple comparison test. Values of p<0.05 were considered as statistically significant.
# [3] = test system: 1% acetic acid induced writhing in mice; conditions: for No. of writhes: 20-minute session, mean ± S.E.M., N = 6
# Experimental: as §1
# [4] = cited from earlier work
structure (smiles),measurement,setting,value
"CS(=O)(=O)Nc1ccc([N+](=O)[O-])cc1Oc1ccccc1 [Nimesulide, 4-nitro-2-phenoxymethane-sulfonanilide]",Percentage of anti-inflammatory activity at hour (h),"[1]; 1 mg/kg p.o., 0.5 h",16%
same,Change in volume (ml) at hour (h),"[1]; 1 mg/kg p.o., 0.5 h post carrageenan",0.148 ± 0.033 mL
same,Percentage of anti-inflammatory activity at hour (h),"[1]; 1 mg/kg p.o., 1 h",−8%
same,Change in volume (ml) at hour (h),"[1]; 1 mg/kg p.o., 1 h post carrageenan",0.186 ± 0.042 mL
same,Percentage of anti-inflammatory activity at hour (h),"[1]; 1 mg/kg p.o., 2 h",−7%
same,Change in volume (ml) at hour (h),"[1]; 1 mg/kg p.o., 2 h post carrageenan",0.312 ± 0.081 mL
same,Percentage of anti-inflammatory activity at hour (h),"[1]; 1 mg/kg p.o., 3 h",20%
same,Change in volume (ml) at hour (h),"[1]; 1 mg/kg p.o., 3 h post carrageenan",0.398 ± 0.092 mL
same,Percentage of anti-inflammatory activity at hour (h),"[1]; 1 mg/kg p.o., 5 h",14%
same,Change in volume (ml) at hour (h),"[1]; 1 mg/kg p.o., 5 h post carrageenan",0.549 ± 0.114 mL
same,Percentage of anti-inflammatory activity at hour (h),"[1]; 3 mg/kg p.o., 0.5 h",22%
same,Change in volume (ml) at hour (h),"[1]; 3 mg/kg p.o., 0.5 h post carrageenan",0.137 ± 0.038 mL
same,Percentage of anti-inflammatory activity at hour (h),"[1]; 3 mg/kg p.o., 1 h",27%
same,Change in volume (ml) at hour (h),"[1]; 3 mg/kg p.o., 1 h post carrageenan",0.126 ± 0.028 mL
same,Percentage of anti-inflammatory activity at hour (h),"[1]; 3 mg/kg p.o., 2 h",33%
same,Change in volume (ml) at hour (h),"[1]; 3 mg/kg p.o., 2 h post carrageenan",0.196 ± 0.056 mL
same,Percentage of anti-inflammatory activity at hour (h),"[1]; 3 mg/kg p.o., 3 h",66* %
same,Change in volume (ml) at hour (h),"[1]; 3 mg/kg p.o., 3 h post carrageenan",0.168 ± 0.11 mL
same,Percentage of anti-inflammatory activity at hour (h),"[1]; 3 mg/kg p.o., 5 h",44%
same,Change in volume (ml) at hour (h),"[1]; 3 mg/kg p.o., 5 h post carrageenan",0.354 ± 0.104 mL
same,Percentage of anti-inflammatory activity at hour (h),"[1]; 10 mg/kg p.o., 0.5 h",33%
same,Change in volume (ml) at hour (h),"[1]; 10 mg/kg p.o., 0.5 h post carrageenan",0.118 ± 0.027 mL
same,Percentage of anti-inflammatory activity at hour (h),"[1]; 10 mg/kg p.o., 1 h",17%
same,Change in volume (ml) at hour (h),"[1]; 10 mg/kg p.o., 1 h post carrageenan",0.143 ± 0.016 mL
same,Percentage of anti-inflammatory activity at hour (h),"[1]; 10 mg/kg p.o., 2 h",62%
same,Change in volume (ml) at hour (h),"[1]; 10 mg/kg p.o., 2 h post carrageenan",0.110 ± 0.018 mL
same,Percentage of anti-inflammatory activity at hour (h),"[1]; 10 mg/kg p.o., 3 h",59* %
same,Change in volume (ml) at hour (h),"[1]; 10 mg/kg p.o., 3 h post carrageenan",0.203 ± 0.032 mL
same,Percentage of anti-inflammatory activity at hour (h),"[1]; 10 mg/kg p.o., 5 h",58** %
same,Change in volume (ml) at hour (h),"[1]; 10 mg/kg p.o., 5 h post carrageenan",0.264 ± 0.035 mL
same,anti-inflammatory activity over time,"[1]; 10 mg/kg, all time intervals",almost consistent anti-inflammatory activity at all time intervals
same,Percentage of anti-inflammatory activity at hour (h),"[1]; 30 mg/kg p.o., 0.5 h",28%
same,Change in volume (ml) at hour (h),"[1]; 30 mg/kg p.o., 0.5 h post carrageenan",0.126 ± 0.027 mL
same,Percentage of anti-inflammatory activity at hour (h),"[1]; 30 mg/kg p.o., 1 h",−12%
same,Change in volume (ml) at hour (h),"[1]; 30 mg/kg p.o., 1 h post carrageenan",0.193 ± 0.024 mL
same,Percentage of anti-inflammatory activity at hour (h),"[1]; 30 mg/kg p.o., 2 h",27%
same,Change in volume (ml) at hour (h),"[1]; 30 mg/kg p.o., 2 h post carrageenan",0.214 ± 0.028 mL
same,Percentage of anti-inflammatory activity at hour (h),"[1]; 30 mg/kg p.o., 3 h",38%
same,Change in volume (ml) at hour (h),"[1]; 30 mg/kg p.o., 3 h post carrageenan",0.307 ± 0.020 mL
same,Percentage of anti-inflammatory activity at hour (h),"[1]; 30 mg/kg p.o., 5 h",30%
same,Change in volume (ml) at hour (h),"[1]; 30 mg/kg p.o., 5 h post carrageenan",0.443 ± 0.035 mL
same,degree of anti-inflammatory activity,"[1]; 30 mg/kg p.o., from 2-5 hour",around 30%
same,reduction in paw volume (dose dependence),"[1]; 1, 3 and 10 mg/kg, p.o., from 2 to 5 hour",dose dependant reduction in paw volume
same,reduction in paw volume compared to control (significance),"[1]; 3 and 10 mg/kg at 3 hours and 10 mg/kg at 5 hours, p<0.05",statistically significant reduction in paw volume
same,% MPE at hour (h),"[2]; 0.1 mg/kg p.o., 1 h",137.0 ± 37.1 %
same,Tail flick latency(s) at hour (h),"[2]; 0.1 mg/kg p.o., 1 h",3.00 ± 0.58 s
same,% MPE at hour (h),"[2]; 0.1 mg/kg p.o., 2 h",251.0 ± 59.9 %
same,Tail flick latency(s) at hour (h),"[2]; 0.1 mg/kg p.o., 2 h",5.50 ± 0.18 s
same,% MPE at hour (h),"[2]; 0.1 mg/kg p.o., 3 h",279.0 ± 49.4 %
same,Tail flick latency(s) at hour (h),"[2]; 0.1 mg/kg p.o., 3 h",6.17 ± 0.33 s
same,% MPE at hour (h),"[2]; 0.1 mg/kg p.o., 5 h",28.0 ± 6.1 %
same,Tail flick latency(s) at hour (h),"[2]; 0.1 mg/kg p.o., 5 h",1.42 ± 0.35 s
same,% MPE at hour (h),"[2]; 0.3 mg/kg p.o., 1 h",114.0 ± 16.8 %
same,Tail flick latency(s) at hour (h),"[2]; 0.3 mg/kg p.o., 1 h",3.17 ± 0.51 s
same,% MPE at hour (h),"[2]; 0.3 mg/kg p.o., 2 h",193.0 ± 9.5 %
same,Tail flick latency(s) at hour (h),"[2]; 0.3 mg/kg p.o., 2 h",5.33 ± 0.38 s
same,% MPE at hour (h),"[2]; 0.3 mg/kg p.o., 3 h",209.0 ± 4.3 %
same,Tail flick latency(s) at hour (h),"[2]; 0.3 mg/kg p.o., 3 h",5.75 ± 0.21 s
same,% MPE at hour (h),"[2]; 0.3 mg/kg p.o., 5 h",54.0 ± 6.6 %
same,Tail flick latency(s) at hour (h),"[2]; 0.3 mg/kg p.o., 5 h",3.08 ± 0.27 s
same,% MPE at hour (h),"[2]; 1.0 mg/kg p.o., 1 h",112.0 ± 22.5 %
same,Tail flick latency(s) at hour (h),"[2]; 1.0 mg/kg p.o., 1 h",3.17 ± 0.67 s
same,% MPE at hour (h),"[2]; 1.0 mg/kg p.o., 2 h",187.0 ± 11.9 %
same,Tail flick latency(s) at hour (h),"[2]; 1.0 mg/kg p.o., 2 h",5.25 ± 0.25 s
same,% MPE at hour (h),"[2]; 1.0 mg/kg p.o., 3 h",187.0 ± 12.0 %
same,Tail flick latency(s) at hour (h),"[2]; 1.0 mg/kg p.o., 3 h",5.25 ± 0.28 s
same,% MPE at hour (h),"[2]; 1.0 mg/kg p.o., 5 h",38.0 ± 6.1 %
same,Tail flick latency(s) at hour (h),"[2]; 1.0 mg/kg p.o., 5 h",2.17 ± 0.28 s
same,% MPE at hour (h),"[2]; 3.0 mg/kg p.o., 1 h",205.0 ± 32.9 %
same,Tail flick latency(s) at hour (h),"[2]; 3.0 mg/kg p.o., 1 h",5.17 ± 0.73 s
same,% MPE at hour (h),"[2]; 3.0 mg/kg p.o., 2 h",250.0 ± 21.9 %
same,Tail flick latency(s) at hour (h),"[2]; 3.0 mg/kg p.o., 2 h",6.33 ± 0.33 s
same,% MPE at hour (h),"[2]; 3.0 mg/kg p.o., 3 h",248.0 ± 20.4 %
same,Tail flick latency(s) at hour (h),"[2]; 3.0 mg/kg p.o., 3 h",6.25 ± 0.21 s
same,% MPE at hour (h),"[2]; 3.0 mg/kg p.o., 5 h",70.0 ± 9.5 %
same,Tail flick latency(s) at hour (h),"[2]; 3.0 mg/kg p.o., 5 h",5.33 ± 0.85 s
same,tail flick latency to radiant heat (dose dependence),"[2]; 0.1, 0.3, 1 and 3 mg/kg, 1, 2, 3 and 5 hours",non dose dependant reduction in tail flick latency
same,percentage of maximum protection (significance),[2]; all time intervals and all dose levels,statistically significant at all time intervals and at all dose levels
same,% protection,[3]; 0.03 mg/kg p.o.,28%
same,No. of writhes,[3]; 0.03 mg/kg p.o.,23.17 ± 3.38
same,% protection,[3]; 0.1 mg/kg p.o.,39%
same,No. of writhes,[3]; 0.1 mg/kg p.o.,19.67 ± 2.73
same,No. of writhes,[3]; 0.3 mg/kg p.o.,15.50 ± 1.88
same,% protection,[3]; 1.0 mg/kg p.o.,75%
same,No. of writhes,[3]; 1.0 mg/kg p.o.,8.00 ± 1.15
same,reduction in number of writhes (dose dependence),"[3]; doses 0.03, 0.1, 0.3 and 1 ml/kg, 1% acetic acid",dose dependant reduction in number of writhes
same,reduction in number of writhing (significance),"[3]; doses 0.1, 0.3 and 1 mg/kg",statistically significant reduction in number of writhing
same,"Time to reach peak concentration (tmax), mean",[4]; after 100 mg,2.50 h
same,"Time to reach peak concentration (tmax), mean",[4]; after 200 mg dose,3.17 h
